The source of these data is a melting point compilation (Tetko et al.; mined from patent text by program, amines drawn as free bases though some values may be those of a salt).

The term melting point denotes the temperature, or range, at which the solid turns liquid. Take `COC(=O)c1ccccc1COc1ccc(-c2cc(O)c(SCCc3ccccc3)c(=O)o2)cc1`: the melting point is 161 to 162 °C.

Turning to `COc1ccc(COc2cccnc2NC(=S)Nc2ccc(Cl)cc2)c(F)c1`, the melting point fell in the range of 138 to 140 °C.

`Cc1cc(Cl)c(Cl)cc1NC(=O)C1(C(=O)O)CC1` returned a melting point of 248 to 251 °C.

Take `Cc1c(C(O)Cc2ccccc2)cc(I)[nH]c1=O` (centres undefined): the melting point was in the range of 166 to 167 °C.

On to `N#CCCNc1nonc1-c1nc2ccccc2n1CC(=O)c1ccc(Cl)cc1`, for which the melting point was in the range of 191 to 192 °C.

For `CN(C)CCOc1ccc(Nc2nccc(-c3c[nH]nc3-c3ccc(OCc4ccccc4)cc3)n2)cc1`, the melting point is 87 to 91 °C.

In turn, `COc1cccc2c1nc(C(F)F)n2-c1nc(N2CCOCC2)cc(N2C[C@@H](C)O[C@@H](C)C2)n1` showed a melting point of 132 to 134 °C.

The compound `CCOC(=O)c1c(C)nc2c(nc(C)n2C)c1Cl` returned a melting point of 73 to 75 °C.

For `CC12CCC(O)CC1CCC1C2C(=NO)CC2(C)C1CCC21OCCO1` (centres undefined), the melting point lay within 158 to 159 °C.

For the compound `CCC1COC(=O)C(=CC(=O)OC)N1` (centres undefined), the melting point fell in the range of 68 to 70 °C.

`N=C(N)Nc1ccc(Cl)c(Cl)c1` displayed a melting point of 208 °C.

In turn, `CC1=C(C(=O)OC(C)(C)C)C(c2ccc(F)cc2)C(C(=O)OC(C)(C)C)=C(C)N1` returned a melting point of 149 to 150 °C.

As to `CC(=O)C1(O)C=c2ccccc2=NC1C` (centres undefined), the melting point is 54 to 56 °C.

Compound `CCCCCCCCNC(=O)Nc1nc2nc(NCCCN3CCN(C)CC3)ncc2cc1-c1c(Cl)cccc1Cl` returned a melting point of 54.5 to 57.5 °C.

For `CS(=O)(=O)Nc1ccc(C(CC2CCCC2)C(=O)Nc2nccs2)cc1` (centres undefined), the melting point was 85 to 90 °C.

In turn, `COc1ccc(OC(=O)C2CCCc3ccc([N+](=O)[O-])cc32)cc1` (centres undefined) gave a melting point of 109 to 110 °C.

For `N#CC(c1ccccc1)N1CCN(C2CCCCC2)CC1` (centres undefined), the melting point is 79 to 81 °C.

`CCN(CC)CCOc1ccc(Nc2ncc3c(n2)N(C)C(=O)N(c2ccccc2C)C3)cc1`: the melting point was found to be 132 °C.

Take `COc1ccc(C(=O)Nc2cnccc2Cl)cc1OC1CCCC1`: the melting point lay within 130 to 132 °C.

In turn, `CC(C)c1nc(C(c2ccccc2)c2ccccc2)cc(-c2ccc(F)cc2)c1CO` displayed a melting point of 138 to 140 °C.

Regarding `NC(=O)C(Nc1ccccc1C1CC1)c1c(Cl)cccc1Cl` (centres undefined), the melting point is 196 °C.

For the compound `O=C(c1ccccc1)N(CCN1CCC(Nc2nc3ccccc3n2Cc2ccc(F)cc2)CC1)c1nccs1`, the melting point was 156 °C.

The compound `N#Cc1nn(-c2c(Cl)cc(C(F)(F)F)cc2Cl)cc1-c1ccoc1Cl` came in with a melting point of 125 °C.

With `COc1ccc(C2=NN(C3CCN(C(C)=O)CC3)C(=O)CC2C)cc1OC` (centres undefined), the melting point lay within 149 to 152 °C.

`CN(C)[C@H]1C[C@@H]2CN(C(=O)c3ccc(NC(=O)c4ccccc4-c4ccccc4)cc3)c3ccccc3N2C1` came in with a melting point of 195 to 197 °C.

On to `CC(=O)Oc1ccc(C(=O)O)cc1I`, for which the melting point was in the range of 173 to 174 °C.

`CC1(C)CCC(C)(C)c2cc(OCc3ccc(CO)cc3)ccc21`: the melting point was in the range of 108 to 109 °C.

The compound `O=C(Nc1cccc2c1C(=O)c1c-2n[nH]c1-c1ccc(C(=O)NC2CCCCC2)s1)NN1CCOCC1` displayed a melting point of 264 to 267 °C.

In turn, `O=c1[nH]c(=O)n2c(c1-c1ccccc1)SC=CC2` yielded a melting point of 286 to 290 °C.

The compound `Cc1cccc(-c2n[nH]cc2-c2ccc(F)c(-c3cn(CCN(C)C)cn3)c2)n1` registered a melting point of 130 to 131 °C.

In turn, `CCOCC1OC(n2cnc3c(N)ncnc32)C(O)C1O` (centres undefined) registered a melting point of 110 to 112 °C.

In turn, `O=c1c2ccc(/C=C/c3ccc(O)cc3)cc2cnn1-c1ccccn1` showed a melting point of 272 °C.

As to `CC(C(=O)O)c1ccc2c(c1)CCc1cccnc1O2` (centres undefined), the melting point was 182 to 184 °C.

`O=Cc1nccn1Cc1cn(-c2ccc(Cl)c(Cl)c2)cn1`: the melting point was in the range of 130 to 131 °C.

Compound `O=C1c2cc3nnn(CC4(c5cccc(F)c5)CC4)c(=O)c3cc2OC2CCCN12` (centres undefined) gave a melting point of 162 to 163 °C.

Take `NC(=O)c1cc(-c2ccncc2)c[nH]c1=O`: the melting point is more than 300 °C.

As for `CCCCCCCCC(SCCCC)C(=O)Nc1cccc2cnccc12` (centres undefined), the melting point lay in the range of 73 to 75 °C.

`CCCn1nc(C(C)C)c(C(=O)OCc2cccc(C(=O)c3ccccc3)c2)c1Cc1ccc(-c2ccccc2S(=O)(=O)NC(C)(C)C)c(F)c1` displayed a melting point of 35 to 45 °C.

The compound `COC(=O)CS(=O)(=O)c1ccc(OC)c(OC)c1` came in with a melting point of 81 to 83 °C.

`CNC(=S)NS(=O)(=O)c1cc(CCNC(=O)C=Cc2cccs2)ccc1OCC1CCCCO1` (centres undefined) displayed a melting point of 80 °C.

On to `Cc1ccccc1-c1cccc2c1CCn1cc(-c3ccccc3)nc1C2OC1CCN(C)CC1` (centres undefined), for which the melting point came to 94 °C.

Take `O=C(CN1CCN(c2cnccn2)CC1)N1CCC(CO)(c2cccc(C(F)(F)F)c2)CC1`: the melting point was determined as 223 °C.

As to `CCOc1ccc(C(=O)Nc2c(Cl)cncc2Cl)c2c3cc(Cl)ccc3n(Cc3ccccc3)c12`, the melting point lay in the range of 221 to 223 °C.

`CC(CCNc1cccc(-c2ccnc3c(C(=O)c4cccs4)cnn23)c1)c1ccccc1` (centres undefined) came in with a melting point of 64 to 68 °C.

Turning to `CON=C(C)c1ccccc1NC(C(N)=O)c1c(Cl)cccc1Cl` (centres undefined), the melting point amounted to 206 °C.

On to `COCC1OC(n2cnc3c(N)nc(F)nc32)C(O)C1O` (centres undefined), for which the melting point was 231 to 233 °C.

`Nc1ccc(NC(=O)CCCCC2CCSS2)cc1` (centres undefined): the melting point lay in the range of 55 to 60 °C.

The compound `CCCCNC(=O)CP(=O)(O)O` returned a melting point of 115 to 125 °C.

With `O=S(=O)(O)COc1ccc(Cl)cc1Br`, the melting point was more than 315 °C.

`CCOC(=O)C(=CN1c2ccc(F)c(F)c2OCC1COC)C(=O)OCC` (centres undefined): the melting point worked out at 81 °C.

With `CCn1c(=O)c2c(nc(/C=C/c3ccc(F)c(Br)c3)n2C)n(CC)c1=O`, the melting point lay within 218 to 219 °C.

As for `COC(=O)c1cc(O)nn1-c1ccccc1`, the melting point was 227 to 228 °C.

`COc1cc(OC)c2c(=O)cc(-c3ccc(N(C)C)cc3)oc2c1C1=CCN(C)CC1` had a melting point of 148 to 150 °C.

On to `CCCCCCCCCCCCCCOC(=O)c1cc(N)cc(C(=O)OCCCCCCCCCCCCCC)c1`, for which the melting point lay within 74 to 75 °C.

For the compound `CS(=O)(=O)c1ccc(-c2oc(CCC(N)=O)nc2-c2ccc(F)cc2)cc1`, the melting point lay in the range of 193 to 195 °C.

In turn, `Nc1c(Cl)cc(Cl)c(CCC(=O)O)c1Cl` registered a melting point of 145 °C.

As for `CC(=O)NS(=O)(=O)c1cccc(N)c1`, the melting point fell in the range of 148 to 150 °C.

In the case of `N#Cc1cc(N2CCC(N3CCOCC3)CC2)ccc1N`, the melting point was in the range of 178 to 180 °C.

Take `O=C(c1ccccc1)c1nc(Br)ccc1[N+](=O)[O-]`: the melting point lay in the range of 146 to 148 °C.

Turning to `COC(=O)c1cc(C(C)=O)ccc1OCCCC(=O)O`, the melting point is 111 to 113 °C.

`CCCn1c(OCC2CC2(Cl)Cl)nc2sccc2c1=O` (centres undefined): the melting point lay in the range of 64 to 66 °C.

`COc1ccc(-c2csc(Nc3cc(OC)ccc3OC)n2)cc1`: the melting point is 104 °C.

For `Cc1ccccc1C(=O)Nc1ccc(-n2nc(C(F)(F)F)cc2C(F)(F)F)cc1`, the melting point fell in the range of 165 to 167 °C.

For the compound `O=C(O)CCc1cn(Cc2ccc(OCc3ccoc3)cc2)cc1-c1ccccc1`, the melting point was in the range of 110 to 111 °C.

`CCCCc1cn2ccccc2c1S(=O)(=O)c1ccc(OCCCBr)cc1` gave a melting point of 119 °C.

Turning to `NC(Cc1c2ccccc2cc2ccccc12)(C(=O)O)C1CC(C(=O)O)C1` (centres undefined), the melting point is 213 to 216 °C.

As for `Cc1ccc(N2CCN(Cc3ccc4c(c3)NCCN4)CC2)cc1Cl`, the melting point lay in the range of 151 to 152 °C.

Turning to `N#Cc1cnc2cc3c(cc2c1Cl)ncn3CCN1CCOCC1`, the melting point lay in the range of 205 to 207 °C.

`CC(C)(C)c1cc2c(c(C(=O)Nc3ccc(S(=O)(=O)C(F)(F)F)cc3Cl)c1O)CCC2` returned a melting point of 172 to 173 °C.

The compound `Cc1cccc(Nc2ccc(-c3ccccc3)cc2)c1` had a melting point of 95 °C.

Consider `CC(C(=O)O)c1ccc(N(C)c2nccs2)cc1` (centres undefined), for which the melting point was in the range of 121 to 123 °C.

As to `Cc1nccc2[nH]c(=O)c(-c3noc(C4CC4)n3)cc12`, the melting point is 259 to 260 °C.

In the case of `CCOC(=O)N1CCC(SC(c2ccccc2)c2ccccc2)CC1`, the melting point was in the range of 70 to 71 °C.

Compound `O=S1(=O)N=CN(C2CC2)c2cc(F)cc(Cl)c21` had a melting point of 252 to 255 °C.

For `c1ccc(Nc2ccc(-c3ccc(N(c4ccccc4)c4ccc(-c5ccccc5)cc4)cc3)cc2)cc1`, the melting point is 127 °C.

`O=C(NCC12CC3CC(CC(C3)C1)C2)c1cc(-c2ncccc2C(=O)O)ccc1Cl`: the melting point lay in the range of 169 to 172 °C.

Take `O=Cc1c2ccccc2cc2oc3ccccc3c12`: the melting point was 128 to 132 °C.

For `CCOc1ccc(F)cc1C(=O)c1sc2ncccc2c1N`, the melting point came out at 130 °C.

Regarding `Cc1cc(C)cc(-c2nc(N)sc2-c2ccncc2)c1`, the melting point was 242 to 244 °C.

In turn, `COC(=O)CCCC=Cc1nn(-c2ccc(F)cc2)c2c1CCC2` returned a melting point of 67 to 68 °C.

As to `Cc1nc(Sc2ccc(C(=O)O)cn2)sc1CC(=O)O`, the melting point was in the range of 226 to 228 °C.

`O=[N+]([O-])c1cc(Cl)c(Oc2ccccc2)cc1NCc1cccc(C(F)(F)F)c1` gave a melting point of 140 to 142 °C.

In turn, `CCc1cc(-n2ccc(=O)cc2)c(S(C)(=O)=O)cc1C(=O)N=C(N)N` registered a melting point of 261 to 263 °C.

On to `CCCCCCOc1cc(-c2ccc3cc4c(cc3c2)C(C)(C)CCC4(C)C)ccc1C(=O)O`, for which the melting point lay in the range of 105 to 106 °C.

Compound `Nc1ccc(C2=NNC(=O)C3CC23)cc1` (centres undefined) registered a melting point of 230 to 231 °C.

In the case of `CC(=O)NC[C@H]1CN(c2ccc(C3=CCN(c4nnc(C)s4)CC3)c(F)c2)C(=O)O1`, the melting point was in the range of 193 to 195 °C.

In the case of `CC(C)(C)NCC(=O)c1cccc2cc(O)c(O)cc12`, the melting point lay in the range of 140 to 144 °C.

The compound `Cn1cc(CNC(=O)c2cc(N3CCN(Cc4ccc(F)cc4)C3=O)n[nH]2)cn1` showed a melting point of 244 to 245 °C.

`CC(C)c1cccc2c1O[C@@H](C(C)C)C(=S)N2CC(=O)O` registered a melting point of 109 to 110 °C.
